Source: patent US12441730B2, “PRMT5 inhibitors” (Merck Sharp & Dohme LLC, priority 2019, dated 2025)
Like-named read-outs stand apart in the source and are kept apart here.

Key:
[1] = target: T1, Full-length (FL)-PRMT5-MEP50 enzyme complex (Homo sapiens, UniProt O14744); test: PRMT5-MEP50 Enzyme Methylation Assay (Version A); type: biochemical
T1 construct: Full-length (FL)-PRMT5-MEP50 enzyme complex (recombinant proteins from baculovirus-transfected Sf21 cells: FL-PRMT5; MW=73837 kDa and FL-MEP50; MW=38614); made in house; host or cells: baculovirus-transfected Sf21 cells
In short: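 Compound was pre-incubated with enzyme for 60 min, then reacted 150 min at 37° C. at final 1.0 nM PRMT5-MEP50, 15 μM SAM and 75 nM biotinylated H4R3(Me1) peptide, in 50 mM Bicine pH 8.0 with 1% DMSO. SAMDI mass-spectrometric readout of Me1→Me2 conversion. EC50 from 4- or 7-parameter regression.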

[2] = system: symmetric dimethylation of arginine (SDMA) of PRMT5 substrates in MCF-7 cells; test: PRMT5 Cell Target Engagement (TE) Assay; type: cell-based; settings: Homo sapiens, MCF7, 72 h, 3 days treatment, SDMA high content imaging
In short: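 Readout is single-cell nuclear symmetric-dimethylarginine immunofluorescence (Alexa488), normalized to DMSO-treated cells. Compounds were applied to MCF-7 cells for 3 days at 37 °C, top concentration 10000 nM in 1:3 steps over ten points; curves fitted with 4-parameter robust fit.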

[3] = single EC50 = 4 parameter single site sigmoidal fit, EC50 1 = first value of 7 parameter biphasic fit, read-out: Enzyme Methylation Assay Version A (EC50 or EC50 1)
[4] = second value of 7 parameter biphasic fit, read-out: Enzyme Methylation Assay Version A (EC50 2)

T1 sequence (O14744 whole entry): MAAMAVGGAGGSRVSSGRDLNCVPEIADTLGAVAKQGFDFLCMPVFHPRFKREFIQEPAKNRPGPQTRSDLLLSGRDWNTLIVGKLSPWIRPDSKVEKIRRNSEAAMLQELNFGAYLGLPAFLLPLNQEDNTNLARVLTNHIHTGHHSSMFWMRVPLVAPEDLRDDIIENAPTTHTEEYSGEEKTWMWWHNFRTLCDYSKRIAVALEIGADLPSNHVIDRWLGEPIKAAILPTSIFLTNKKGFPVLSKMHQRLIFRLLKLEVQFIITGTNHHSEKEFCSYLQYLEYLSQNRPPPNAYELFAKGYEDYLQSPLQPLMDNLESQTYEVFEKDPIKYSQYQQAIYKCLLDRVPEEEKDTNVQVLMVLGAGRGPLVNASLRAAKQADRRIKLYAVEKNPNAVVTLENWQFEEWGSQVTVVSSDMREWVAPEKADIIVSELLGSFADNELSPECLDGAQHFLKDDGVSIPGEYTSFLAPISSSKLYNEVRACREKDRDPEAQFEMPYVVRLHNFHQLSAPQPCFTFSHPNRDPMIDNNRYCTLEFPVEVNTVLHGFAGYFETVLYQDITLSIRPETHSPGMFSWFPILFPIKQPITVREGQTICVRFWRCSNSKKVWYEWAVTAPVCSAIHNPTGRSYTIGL
T1 sequence (Q9BQA1 whole entry partner): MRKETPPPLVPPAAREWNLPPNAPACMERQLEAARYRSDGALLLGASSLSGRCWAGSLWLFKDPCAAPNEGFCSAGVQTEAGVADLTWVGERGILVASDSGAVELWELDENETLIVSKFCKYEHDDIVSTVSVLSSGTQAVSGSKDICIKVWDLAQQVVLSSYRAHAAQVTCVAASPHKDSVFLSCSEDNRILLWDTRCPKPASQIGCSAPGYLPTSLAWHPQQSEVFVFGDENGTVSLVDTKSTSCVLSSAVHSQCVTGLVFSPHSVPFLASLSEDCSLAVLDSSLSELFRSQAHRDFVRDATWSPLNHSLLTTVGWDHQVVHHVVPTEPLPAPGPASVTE

| EC50 [1, 3] [nM] | EC50 [2] [nM] | EC50 [1, 4] [nM] | SMILES |
| --- | --- | --- | --- |
| 8.47 | 26.7 |  | Cc1ccc2c(c1)C[C@]1(CCN(C(=O)c3cn4cc(C5CC5)cnc4n3)C[C@H]1O)NC2 (single isomer, unassigned) [Example 227] |
| 0.556 | 9.35 | 153 | COc1nc2nc(C(=O)N3CC[C@]4(Cc5ccccc5CN4)[C@H](O)C3)cn2cc1Br (single isomer, unassigned) [Example 248] |
| 20.8 | 311 | 8510 | Cn1c(=O)c(Br)cn2cc(C(=O)N3CC[C@]4(Cc5ccccc5CN4)[C@H](O)C3)nc12 (single isomer, unassigned) [Example 249] |
| 0.498 | 27.1 | 138 | COC(C)(C)c1ccc2nc(C(=O)N3CC[C@]4(Cc5ccccc5CN4)[C@H](O)C3)cn2c1 (stereo in doubt) [Example 46, (3′-hydroxy-2,4-dihydro-1H-spiro[isoquinoline-3,4′-piperidin]-1′-yl)(6-(2-methoxypropan-2-yl)imidazo[1,2-a]pyridin-2-yl)methanone] |
| 0.501 | 2.92 | 75.3 | O=C(c1cn2cc(Br)ccc2n1)N1CC[C@]2(Cc3ccccc3CN2)[C@H](O)C1 [Example 1, (6-bromoimidazo[1,2-a]pyridin-2-yl)((3R,3′R)-3′-hydroxy-1,4-dihydro-2H-spiro[isoquinoline-3,4′-piperidin]-1′-yl)methanone] |
| 0.629 | 75.8 | 1380 | CN(C)C(=O)c1ccc2nc(C(=O)N3CC[C@]4(Cc5ccccc5CN4)[C@H](O)C3)cn2c1 [Example 2, 2-((3R,3′R)-3′-hydroxy-2,4-dihydro-1H-spiro[isoquinoline-3,4′-piperidin]-1′-ylcarbonyl)-N,N-dimethylimidazo[1,2-a]pyridine-6-carboxamide] |
| 1.45 | 14.5 | 918 | O=C(c1cn2cc(Cl)cnc2n1)N1CC[C@]2(Cc3ccccc3CN2)[C@H](O)C1 [Example 3, (6-chloroimidazo[1,2-a]pyrimidin-2-yl)((3R,3′R)-3′-hydroxy-1,4-dihydro-2H-spiro[isoquinoline-3,4′-piperidin]-1′-yl)methanone] |
| 0.71 | 3.24 | 220 | O=C(c1cn2cc(Br)cc(CO)c2n1)N1CC[C@]2(Cc3ccccc3CN2)[C@H](O)C1 [Example 6, (6-bromo-8-(hydroxymethyl)imidazo[1,2-a]pyridin-2-yl)((3R,3’R)-3′-hydroxy-1,4-dihydro-2H-spiro[isoquinoline-3,4′-piperidin]-1′-yl)methanone] |
| 0.639 | 0.545 | 52.5 | O=C(c1cn2cc(Br)cc(I)c2n1)N1CC[C@]2(Cc3ccccc3CN2)[C@H](O)C1 [Example 7] |
| 1.53 | 3.63 | 403 | COc1nc(Br)cn2cc(C(=O)N3CC[C@]4(Cc5ccccc5CN4)[C@H](O)C3)nc12 [Example 8] |
| 13.5 | 694 | 4680 | O=C(c1ccc2c(O)c(C3CC3)cnc2c1)N1CC[C@]2(Cc3ccccc3CN2)[C@H](O)C1 [Example 9, (3-cyclopropyl-4-hydroxyquinolin-7-yl)((3R,3’R)-3′-hydroxy-1,4-dihydro-1′H,2H-spiro[isoquinoline-3,4′-piperidin]-1′-yl)methanone] |
| 0.815 | 4.21 | 180 | CCOc1nc(Br)cn2cc(C(=O)N3CC[C@]4(Cc5ccccc5CN4)[C@H](O)C3)nc12 [Example 10] |
| 0.495 | 4.2 | 88.6 | CC(C)Oc1nc(Br)cn2cc(C(=O)N3CC[C@]4(Cc5ccccc5CN4)[C@H](O)C3)nc12 [Example 11, {6-bromo-8-[(propan-2-yl)oxy]imidazo[1,2-a]pyrazin-2-yl}((3R,3’R)-3′-hydroxy-1,4-dihydro-1′H,2H-spiro[isoquinoline-3,4′-piperidin]-1′-yl)methanone] |
| 0.231 | 9.48 | 159 | O=C(c1cn2cc(Br)nc(OC3COC3)c2n1)N1CC[C@]2(Cc3ccccc3CN2)[C@H](O)C1 [Example 12, (6-bromo-8-(oxetan-3-yloxy)imidazo[1,2-a]pyrazin-2-yl)((3R,3’R)-3′-hydroxy-1,4-dihydro-2H-spiro[isoquinoline-3,4′-piperidin]-1′-yl)methanone] |
| 0.406 | 8.16 | 320 | O=C1CCCN1CCOc1nc(Br)cn2cc(C(=O)N3CC[C@]4(Cc5ccccc5CN4)[C@H](O)C3)nc12 [Example 13, 1-(2-((6-bromo-2-((3R,3’R)-3′-hydroxy-1,4-dihydro-2H-spiro[isoquinoline-3,4′-piperidine]-1′-carbonyl)imidazo[1,2-a]pyrazin-8-yl)oxy)ethyl)pyrrolidin-2-one] |
| 100 | 547 | 57500 | O=C(c1cn2cc(Br)cc(N3CCCC3=O)c2n1)N1CC[C@]2(Cc3ccccc3CN2)[C@H](O)C1 [Example 14, 1-(6-bromo-2-((3R3’R)-3′-hydroxy-1,4-dihydro-2H-spiro[isoquinoline-3,4′-piperidine]-1′-carbonyl)imidazo[1,2-a]pyridin-8-yl)pyrrolidin-2-one] |
| 2.02 | 50.9 | 1590 | O=C(c1cn2cc(Br)ccc2n1)N1CCC2(Cc3ccccc3CN2)C(O)C1 (stereo not drawn) [Example 16, A diastereomer of (6-bromoimidazo[1,2-a]pyridin-2-yl)(3′-hydroxy-1,4-dihydro-1′H,2H-spiro[isoquinoline-3,4′-piperidin]-1′-yl)methanone] |
| 1.51 | 14.1 | 794 | O=C(c1cc2ncc(Br)cn2n1)N1CC[C@]2(Cc3ccccc3CN2)[C@H](O)C1 [Example 17, (6-bromopyrazolo[1,5-a]pyrimidin-2-yl)((3R,3’R)-3′-hydroxy-1,4-dihydro-1′H,2H-spiro[isoquinoline-3,4′-piperidin]-1′-yl)methanone] |
| 63.1 | 1010 | 57500 | O=C(c1nc2cc(Cl)ccn2n1)N1CC[C@]2(Cc3ccccc3CN2)[C@H](O)C1 [Example 18] |
| 0.305 | 10.2 | 105 | COCCOc1nc(Br)cn2cc(C(=O)N3CC[C@]4(Cc5ccccc5CN4)[C@H](O)C3)nc12 [Example 19, (6-bromo-8-(2-methoxyethoxy)imidazo[1,2-a]pyrazin-2-yl)((3R,3’R)-3′-hydroxy-1,4-dihydro-2H-spiro[isoquinoline-3,4′-piperidin]-1′-yl)methanone] |
| 0.438 | 16.5 | 151 | CC(C)(O)COc1nc(Br)cn2cc(C(=O)N3CC[C@]4(Cc5ccccc5CN4)[C@H](O)C3)nc12 [Example 20, (6-bromo-8-(2-hydroxy-2-methylpropoxy)imidazo[1,2-a]pyrazin-2-yl)((3R,3’R)-3′-hydroxy-1,4-dihydro-2H-spiro[isoquinoline-3,4′-piperidin]-1′-yl)methanone] |
| 0.191 | 2.13 |  | N#CC1(COc2nc(Br)cn3cc(C(=O)N4CC[C@]5(Cc6ccccc6CN5)[C@H](O)C4)nc23)CC1 [Example 21, 1-(((6-bromo-2-((3R,3’R)-3′-hydroxy-1,4-dihydro-2H-spiro[isoquinoline-3,4′-piperidine]-l′-carbonyl)imidazo[1,2-a]pyrazin-8-yl)oxy)methyl)cyclopropane-1-carbonitrile] |
| 0.461 | 4.09 | 146 | O=C(c1cn2cc(Br)cnc2n1)N1CC[C@]2(Cc3ccccc3CN2)[C@H](O)C1 [Example 24, (6-bromoimidazo[1,2-a]pyrimidin-2-yl)((3R,3’RR)-3′-hydroxy-1,4-dihydro-1′H,2H-spiro[isoquinoline-3,4′-piperidin]-1′-yl)methanone] |
| 7.12 | 30.2 | 2040 | O=C(c1cnc2ncc(Br)cn12)N1CC[C@]2(Cc3ccccc3CN2)[C@H](O)C1 [Example 25, (6-bromoimidazo[1,2-a]pyrimidin-3-yl)((3R,3’R)-3′-hydroxy-1,4-dihydro-1′H,2H-spiro[isoquinoline-3,4′-piperidin]-1′-yl)methanone] |
| 1.44 | 12.3 | 684 | CCN1CCNc2cc(C(=O)N3CC[C@]4(Cc5ccccc5CN4)[C@H](O)C3)ccc2C1=O [Example 26, 4-ethyl-8-((3R,3’R)-3′-hydroxy-1,4-dihydro-1′H,2H-spiro[isoquinoline-3,4′-piperidine]-1′-carbonyl)-1,2,3,4-tetrahydro-5H-1,4-benzodiazepin-5-one] |
| 3.65 | 36.8 | 3350 | CC(C)N1CCNc2cc(C(=O)N3CC[C@]4(Cc5ccccc5CN4)[C@H](O)C3)ccc2C1=O [Example 27, 8-((3R,3’R)-3′-hydroxy-1,4-dihydro-1′H,2H-spiro[isoquinoline-3,4′-piperidine]-1′-carbonyl)-4-(propan-2-yl)-1,2,3,4-tetrahydro-5H-1,4-benzodiazepin-5-one] |
| 0.816 | 2.75 |  | COCc1cc(Br)cn2cc(C(=O)N3CC[C@]4(Cc5ccccc5CN4)[C@H](O)C3)nc12 [Example 28, (6-bromo-8-(methoxymethyl)imidazo[1,2-a]pyridin-2-yl)((3R,3’R)-3′-hydroxy-1,4-dihydro-2H-spiro[isoquinoline-3,4′-piperidin]-1′-yl)methanone] |
